Usually EC50 stands for the concentration that produces a half-maximal response. A high value points to weaker potency.

From BindingDB's records for doi:10.1021/jm010469k (Agouron Pharmaceuticals, 2002) come the findings set out here.

Test [1] in a line: antirhinoviral activity against HRV Protease 3CP (serotype 10).
The nature of test [2]: antirhinoviral activity against HRV Protease 3CP (serotype 1A).
Test [3] in a line: antirhinoviral activity against HRV Protease 3CP (serotype 14).
Test [4] in a line: antirhinoviral activity against HRV Protease 3CP (serotype Hanks).
Test [5] in a line: antirhinoviral activity against HRV Protease 3CP (serotype 13).
A short description of test [6]: antirhinoviral activity against HRV Protease 3CP (serotype 1A). This is another data set of the same source.
Test [7] is described as follows: antirhinoviral activity against HRV Protease 3CP (serotype 39).
The nature of test [8]: antirhinoviral activity against HRV Protease 3CP (serotype 25).
The nature of test [9]: antirhinoviral activity against HRV Protease 3CP (serotype 11).
A short description of test [10]: antirhinoviral activity against HRV Protease 3CP (serotype 23).
Test [11] is described as follows: antirhinoviral activity against HRV Protease 3CP (serotype 2).
A short description of test [12]: antirhinoviral activity against HRV Protease 3CP (serotype 16).
Test [13] in a line: antirhinoviral activity against HRV Protease 3CP (serotype 3).
The nature of test [14]: antirhinoviral activity against HRV Protease 3CP (serotype 9).
Test [15] in a line: antirhinoviral activity against HRV Protease 3CP (serotype 78).
A short description of test [16]: antirhinoviral activity against HRV Protease 3CP (serotype 19).
Test [17] in a line: antirhinoviral activity against HRV Protease 3CP (serotype 10). This is another data set of the same source.
Test [18] is described as follows: antirhinoviral activity against Human Rhinovirus Protease 3C (serotype 1A).
A short description of test [19]: antirhinoviral activity against Human Rhinovirus Protease 3C (serotype 14).
A short description of test [20]: antirhinoviral activity against Human Rhinovirus Protease 3C (serotype 10).

On to `CCOC(=O)/C=C/[C@H](C[C@@H]1CCNC1=O)NC(=O)[C@H](Cc1ccc(F)cc1)n1cccc(NC(=O)c2cc(C)on2)c1=O` [4-(3-(4-Fluoro-phenyl)-2-{3-[(5-methyl-isoxazole-3-carbonyl)-amino]-2-oxo-2H-pyridin-1-yl}-propionylamino)-5-(2-oxo-pyrrolidin-3-yl)-pent-2-enoic acid ethyl ester], for which the half-maximal effective concentration (EC50) in test [1] is 0.004 µM; in test [2], 0.015 µM.
For `CCOC(=O)/C=C/[C@H](CCC(N)=O)NC(=O)[C@H](Cc1ccc(F)c(F)c1)n1cccc(NC(=O)OCc2ccccc2)c1=O` [4-[2-(3-Benzyloxycarbonylamino-2-oxo-2H-pyridin-1-yl)-3-(3,4-difluoro-phenyl)-propionylamino]-6-carbamoyl-hex-2-enoic acid ethyl ester], the 50% effective concentration (EC50) came to 0.032 µM in test [1] and 0.513 µM in test [2].
`CCOC(=O)/C=C/[C@H](CCC(N)=O)NC(=O)[C@H](Cc1ccc(F)cc1)n1cccc(NC(=O)OCc2ccccc2)c1=O` [4-[2-(3-Benzyloxycarbonylamino-2-oxo-2H-pyridin-1-yl)-3-(4-fluoro-phenyl)-propionylamino]-6-carbamoyl-hex-2-enoic acid ethyl ester]: the half-maximal effective concentration (EC50) in [1] was determined as 0.111 µM; in [2], 0.607 µM.
`CCOC(=O)/C=C/[C@H](C[C@@H]1CCNC1=O)NC(=O)[C@H](Cc1ccccc1)n1cccc(NC(=O)OCc2ccccc2)c1=O` [4-[2-(3-Benzyloxycarbonylamino-2-oxo-2H-pyridin-1-yl)-3-phenyl-propionylamino]-5-(2-oxo-pyrrolidin-3-yl)-pent-2-enoic acid ethyl ester] returned an EC50 in test [3] of 0.003 µM.
With `CCOC(=O)/C=C/[C@H](CCC(N)=O)NC(=O)[C@H](Cc1ccccc1)n1cccc(NC(=O)C2SCCS2)c1=O` [6-Carbamoyl-4-(2-{3-[([1,3]dithiolane-2-carbonyl)-amino]-2-oxo-2H-pyridin-1-yl}-3-phenyl-propionylamino)-hex-2-enoic acid ethyl ester], the EC50 in [1] is 1.41 µM; in [2], 1.18 µM.
In the case of `CCOC(=O)/C=C/[C@H](C[C@@H]1CCNC1=O)NC(=O)[C@H](Cc1ccc(F)c(F)c1)n1cccc(NC(=O)c2cc(C)on2)c1=O` [(1S,5S)-4-((S)-3-(3,4-Difluoro-phenyl)-2-{3-[(5-methyl-isoxazole-3-carbonyl)-amino]-2-oxo-2H-pyridin-1-yl}-propionylamino)-5-(2-oxo-pyrrolidin-3-yl)-pent-2-enoic acid ethyl ester], the figures for the concentration for a half-maximal effect (EC50) in [1] and in test [2] were 0.005 µM and 0.006 µM, respectively.
As to `Cc1cc(C(=O)Nc2cccn([C@@H](Cc3ccc(F)c(F)c3)C(=O)N[C@H](/C=C/C(=O)OC(C)C)C[C@@H]3CCNC3=O)c2=O)no1` [(1S,5S)-4-((S)-3-(3,4-Difluoro-phenyl)-2-{3-[(5-methyl-isoxazole-3-carbonyl)-amino]-2-oxo-2H-pyridin-1-yl}-propionylamino)-5-(2-oxo-pyrrolidin-3-yl)-pent-2-enoic acid isopropyl ester], the EC50 in [4] was 0.003 µM; in test [5], 0.044 µM; in test [6] it was 0.132 µM; in [7], 0.044 µM; in test [8] it was 0.1 µM; in [9], 0.003 µM. Also, the EC50 in test [10] came to 0.01 µM; in [11], 0.048 µM; in [12], 0.036 µM; in test [13] it was 0.033 µM; in [14], 0.109 µM; in test [15] it was 0.012 µM. The concentration giving a half-maximal response (EC50) in test [16] is 0.009 µM; in test [3], 0.003 µM; in test [17] it was 0.085 µM.
For the compound `CCOC(=O)/C=C/[C@H](CCC(N)=O)NC(=O)[C@H](Cc1ccccc1)n1cccc(NC(=O)OCc2ccccc2)c1=O` [(E)-(S)-4-[(S)-2-(3-Benzyloxycarbonylamino-2-oxo-2H-pyridin-1-yl)-3-phenyl-propionylamino]-6-carbamoyl-hex-2-enoic acid ethyl ester], the EC50 in test [18] is 1.25 µM; in test [19], 0.033 µM; in [20], 0.372 µM.
